“And” between values parts separate entries of the source, which are not always exact repeats. Identical values can stand only once.
Legend:
[1] = molecular target: EGFR (Human), P00533 [T790M/L858R]; conditions: baf3
[2] = molecular target: EGFR (Human), P00533 [T790M/L858R]
[3] = molecular target: EGFR (human), P00533 [L858R]
[4] = molecular target: EGFR (Human), P00533 [Assessment of EGFR-Del T790M Dependent Cell Proliferation in BaF3 Cells]
EGFR (human) = EGFR (human) (UniProt P00533)
Chain of EGFR (human) (P00533 whole entry, looked up): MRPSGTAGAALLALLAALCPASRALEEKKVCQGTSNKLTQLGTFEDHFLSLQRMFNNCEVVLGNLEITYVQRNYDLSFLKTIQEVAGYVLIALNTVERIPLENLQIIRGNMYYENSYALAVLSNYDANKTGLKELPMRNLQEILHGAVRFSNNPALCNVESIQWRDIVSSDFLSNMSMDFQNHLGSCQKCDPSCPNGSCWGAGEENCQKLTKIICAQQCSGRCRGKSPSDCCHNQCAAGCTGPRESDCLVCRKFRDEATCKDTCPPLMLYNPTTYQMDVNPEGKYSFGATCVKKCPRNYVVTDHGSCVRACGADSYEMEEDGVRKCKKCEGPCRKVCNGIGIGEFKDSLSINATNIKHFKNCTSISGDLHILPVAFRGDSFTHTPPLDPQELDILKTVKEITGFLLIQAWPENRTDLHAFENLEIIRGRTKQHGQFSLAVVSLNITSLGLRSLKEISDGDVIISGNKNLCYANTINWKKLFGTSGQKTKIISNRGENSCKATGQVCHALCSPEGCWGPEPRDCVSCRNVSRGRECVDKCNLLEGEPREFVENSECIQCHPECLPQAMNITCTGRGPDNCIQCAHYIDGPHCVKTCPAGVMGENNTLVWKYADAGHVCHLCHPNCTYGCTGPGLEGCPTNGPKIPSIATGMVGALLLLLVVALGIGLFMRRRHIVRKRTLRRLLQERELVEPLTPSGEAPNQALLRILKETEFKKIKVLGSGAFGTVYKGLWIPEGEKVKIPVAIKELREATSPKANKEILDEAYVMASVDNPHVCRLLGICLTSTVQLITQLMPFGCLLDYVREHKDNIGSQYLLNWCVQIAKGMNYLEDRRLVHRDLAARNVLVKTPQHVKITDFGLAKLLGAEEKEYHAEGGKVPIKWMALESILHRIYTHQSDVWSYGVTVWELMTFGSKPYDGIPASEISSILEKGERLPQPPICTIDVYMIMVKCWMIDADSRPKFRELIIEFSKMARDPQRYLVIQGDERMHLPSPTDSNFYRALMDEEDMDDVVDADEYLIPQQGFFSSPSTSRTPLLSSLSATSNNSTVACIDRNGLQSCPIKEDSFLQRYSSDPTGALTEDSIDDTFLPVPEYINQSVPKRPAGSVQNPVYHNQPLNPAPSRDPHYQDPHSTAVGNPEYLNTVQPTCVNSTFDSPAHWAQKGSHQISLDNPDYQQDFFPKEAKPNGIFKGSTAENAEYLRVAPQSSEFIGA

Chain of EGFR (Human), P00533 [T790M/L858R] (P00533 whole entry T790M/L858R, looked up): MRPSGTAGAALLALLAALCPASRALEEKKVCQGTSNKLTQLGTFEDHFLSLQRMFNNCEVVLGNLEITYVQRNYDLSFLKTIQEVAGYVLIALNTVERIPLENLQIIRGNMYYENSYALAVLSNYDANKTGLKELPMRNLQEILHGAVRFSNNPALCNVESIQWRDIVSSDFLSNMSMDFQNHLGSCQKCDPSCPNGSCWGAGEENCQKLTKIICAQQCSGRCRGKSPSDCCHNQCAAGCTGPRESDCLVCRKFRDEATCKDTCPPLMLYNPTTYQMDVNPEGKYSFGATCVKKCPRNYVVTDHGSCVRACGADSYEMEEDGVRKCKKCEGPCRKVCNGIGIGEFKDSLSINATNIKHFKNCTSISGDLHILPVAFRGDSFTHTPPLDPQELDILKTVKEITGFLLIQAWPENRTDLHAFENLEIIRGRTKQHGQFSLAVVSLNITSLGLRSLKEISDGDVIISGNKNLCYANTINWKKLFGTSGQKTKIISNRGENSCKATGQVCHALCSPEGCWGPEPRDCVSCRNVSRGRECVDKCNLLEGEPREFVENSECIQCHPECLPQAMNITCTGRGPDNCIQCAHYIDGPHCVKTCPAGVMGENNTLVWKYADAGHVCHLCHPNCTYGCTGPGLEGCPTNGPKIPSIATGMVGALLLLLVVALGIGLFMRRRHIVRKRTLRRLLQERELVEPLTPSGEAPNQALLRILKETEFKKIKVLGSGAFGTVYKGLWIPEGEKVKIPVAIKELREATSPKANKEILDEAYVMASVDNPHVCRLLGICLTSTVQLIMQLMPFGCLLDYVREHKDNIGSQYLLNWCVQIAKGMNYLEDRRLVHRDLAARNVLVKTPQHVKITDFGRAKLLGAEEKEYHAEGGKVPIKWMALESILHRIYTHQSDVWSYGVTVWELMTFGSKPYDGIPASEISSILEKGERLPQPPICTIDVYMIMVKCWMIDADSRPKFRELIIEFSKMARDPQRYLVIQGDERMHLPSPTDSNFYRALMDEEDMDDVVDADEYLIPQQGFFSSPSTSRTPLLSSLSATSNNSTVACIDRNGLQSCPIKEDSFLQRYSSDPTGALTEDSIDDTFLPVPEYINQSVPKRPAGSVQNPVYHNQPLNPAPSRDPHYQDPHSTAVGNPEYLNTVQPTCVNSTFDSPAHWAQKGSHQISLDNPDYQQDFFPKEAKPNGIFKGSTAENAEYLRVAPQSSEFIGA
Chain of EGFR (Human), P00533 [Assessment of EGFR-Del T790M Dependent Cell Proliferation in BaF3 Cells] (P00533 whole entry, looked up, stated change not applied): as the sequence (P00533 whole entry, looked up) above
Chain of EGFR (human), P00533 [L858R] (P00533 whole entry L858R, looked up): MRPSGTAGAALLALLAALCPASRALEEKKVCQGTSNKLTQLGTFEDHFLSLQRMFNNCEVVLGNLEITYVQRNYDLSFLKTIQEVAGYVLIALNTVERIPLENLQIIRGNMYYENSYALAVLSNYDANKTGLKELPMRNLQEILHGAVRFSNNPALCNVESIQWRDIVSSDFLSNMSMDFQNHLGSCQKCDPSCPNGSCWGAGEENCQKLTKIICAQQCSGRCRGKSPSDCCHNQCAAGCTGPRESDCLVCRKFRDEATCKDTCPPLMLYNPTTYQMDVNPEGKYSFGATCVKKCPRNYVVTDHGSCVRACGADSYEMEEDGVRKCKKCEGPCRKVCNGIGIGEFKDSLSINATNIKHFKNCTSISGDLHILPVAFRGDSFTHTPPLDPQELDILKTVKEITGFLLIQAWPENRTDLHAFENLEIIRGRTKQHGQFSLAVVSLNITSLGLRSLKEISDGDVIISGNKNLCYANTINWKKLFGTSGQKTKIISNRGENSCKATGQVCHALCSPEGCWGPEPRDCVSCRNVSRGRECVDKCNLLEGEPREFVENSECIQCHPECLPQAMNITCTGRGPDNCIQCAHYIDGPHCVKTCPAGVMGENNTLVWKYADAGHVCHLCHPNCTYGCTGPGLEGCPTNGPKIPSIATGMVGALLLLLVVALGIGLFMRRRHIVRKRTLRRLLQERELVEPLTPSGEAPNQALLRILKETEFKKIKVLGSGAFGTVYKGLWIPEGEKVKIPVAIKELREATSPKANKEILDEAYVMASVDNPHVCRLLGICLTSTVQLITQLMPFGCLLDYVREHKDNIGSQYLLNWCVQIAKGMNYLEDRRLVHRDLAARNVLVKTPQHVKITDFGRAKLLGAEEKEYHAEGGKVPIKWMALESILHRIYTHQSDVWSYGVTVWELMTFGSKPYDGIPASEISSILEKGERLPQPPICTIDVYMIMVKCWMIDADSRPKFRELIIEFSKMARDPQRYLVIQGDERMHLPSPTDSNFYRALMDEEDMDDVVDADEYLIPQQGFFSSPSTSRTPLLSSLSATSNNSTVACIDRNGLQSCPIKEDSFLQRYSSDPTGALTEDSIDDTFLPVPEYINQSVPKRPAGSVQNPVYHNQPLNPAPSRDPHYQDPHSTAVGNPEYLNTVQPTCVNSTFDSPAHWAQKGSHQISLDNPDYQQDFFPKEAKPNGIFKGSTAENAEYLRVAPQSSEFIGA

IC50 [1]	IC50 [2]	IC50 [3]	IC50 [4]	IC50 (EGFR (human))	SMILES
50 to 100 nM	50 to 100 nM	< 50 nM	< 50 nM		C=C(F)C(=O)Nc1ccc(OC)c(Nc2ncc(Cl)c(Nc3ccccc3P(C)(C)=O)n2)c1
	< 50 nM	< 50 nM		< 50 nM	C=CC(=O)Nc1cc(Cc2ncc(Cl)c(Nc3ccccc3P(C)(C)=O)n2)c(OC)cc1C#CCN1CCC(C)CC1
< 50 nM	< 50 nM	< 50 nM	< 50 nM	< 50 nM	C=C(CN1CCCCC1)C(=O)Nc1ccc(OC)c(Nc2ncc(Cl)c(Nc3ccccc3P(C)(C)=O)n2)c1
< 50 nM	< 50 nM	< 50 nM	< 50 nM	< 50 nM	C=CC(=O)Nc1cc(Nc2ncc(Cl)c(Nc3ccccc3P(C)(C)=O)n2)c(OC)cc1OCCN1CCCCC1
50 to 100 nM	< 50 nM	< 50 nM	< 50 nM	50 to 100 nM	C=CC(=O)Nc1ccc(OC)c(Nc2ncc(Cl)c(Nc3ccc(OCCOC)cc3P(C)(C)=O)n2)c1
< 50 nM	< 50 nM	< 50 nM	< 50 nM	< 50 nM	C=CC(=O)Nc1cc(Nc2ncc(Cl)c(Nc3ccccc3P(C)(C)=O)n2)c(OC)cc1OCCN1CCCC1
101 to 250 nM	< 50 nM	< 50 nM	101 to 250 nM		C=CC(=O)Nc1cc(Nc2ncc(Cl)c(Nc3ccccc3P(C)(C)=O)n2)c(OC)cc1C#CC1(N(C)C)CC1
< 50 nM	< 50 nM	< 50 nM	< 50 nM	< 50 nM	COc1cc(F)c(NC(=O)C#CCN(C)C)cc1Nc1ncc(Cl)c(Nc2ccccc2P(C)(C)=O)n1
	< 50 nM	< 50 nM			COc1ccc(NC(=O)/C=C\C(=O)NCCN(C)C)cc1Nc1ncc(Cl)c(Nc2ccccc2P(C)(C)=O)n1
< 50 nM	< 50 nM	< 50 nM	< 50 nM	< 50 nM	C=CC(=O)Nc1ccc(Cl)c(Nc2ncc(Cl)c(Nc3ccccc3P(C)(C)=O)n2)c1
< 50 nM	< 50 nM	< 50 nM	< 50 nM	< 50 nM	COc1cc(F)c(NC(=O)C#CCN2CCCC2)cc1Nc1ncc(Cl)c(Nc2ccccc2P(C)(C)=O)n1
< 50 nM			< 50 nM		C=CC(=O)Nc1cc(Nc2ncc(Cl)c(Nc3ccccc3P(C)(C)=O)n2)c(OC)cc1OCC1CCCN1C (stereo not drawn)
< 50 nM	< 50 nM	< 50 nM	< 50 nM		COc1ccc(NC(=O)C#Cc2ccccc2)cc1Nc1ncc(Cl)c(Nc2ccccc2P(C)(C)=O)n1
< 50 nM	< 50 nM	< 50 nM	< 50 nM	< 50 nM	C=CC(=O)Nc1cc(Nc2ncc(Cl)c(Nc3ccccc3P(C)(C)=O)n2)c(C)cc1OC(COC)CN(C)C (stereo not drawn)
< 50 nM	< 50 nM	< 50 nM	< 50 nM	< 50 nM	CCOC(=O)/C=C/C(=O)Nc1ccc(OC)c(Nc2ncc(Cl)c(Nc3ccccc3P(C)(C)=O)n2)c1
	< 50 nM	< 50 nM	101 to 250 nM	< 50 nM	C=CC(=O)Nc1cc(Nc2ncc(Cl)c(Nc3ccccc3P(C)(C)=O)n2)c(OC)cc1N1CCC(N2CCC(O)CC2)C1 (stereo not drawn)
	101 to 250 nM	< 50 nM		50 to 100 nM	C=CC(=O)Nc1ccc(OC)c(Nc2cc(Nc3ccccc3P(C)(C)=O)ncn2)c1
	101 to 250 nM	50 to 100 nM			COc1ccc(NC(=O)/C=C/C(=O)N(C)C)cc1Nc1ncc(Cl)c(Nc2ccccc2P(C)(C)=O)n1
	< 50 nM	< 50 nM	101 to 250 nM	< 50 nM	C=CC(=O)Nc1cc(Nc2ncc(Cl)c(Nc3ccccc3P(C)(C)=O)n2)c(OC)cc1CCN1CCN(C)CC1
	< 50 nM	< 50 nM		101 to 250 nM	COc1ccc(NC(=O)/C=C/C2(N)CC2)cc1Nc1ncc(Cl)c(Nc2ccccc2P(C)(C)=O)n1
	< 50 nM	< 50 nM		< 50 nM	C=CC(=O)Nc1cc(Nc2ncc(Cl)c(Nc3ccccc3P(C)(C)=O)n2)c(OC)cc1N1CCC(N)C1 (stereo not drawn)
< 50 nM			< 50 nM		C=CC(=O)Nc1ccc(F)c(Nc2ncc(Cl)c(Nc3ccccc3P(C)(C)=O)n2)c1
	< 50 nM	< 50 nM		< 50 nM	C=C(C(=O)Nc1ccc(OC)c(Nc2ncc(Cl)c(Nc3ccccc3P(C)(C)=O)n2)c1)C(F)(F)F
50 to 100 nM		101 to 250 nM	< 50 nM		CC#CC(=O)Nc1cc(Nc2ncc(Cl)c(Nc3ccccc3P(C)(C)=O)n2)c(OC)cc1OCC1CCOCC1
101 to 250 nM	< 50 nM	< 50 nM	< 50 nM		CNC(=O)/C=C\C(=O)Nc1ccc(OC)c(Nc2ncc(Cl)c(Nc3ccccc3P(C)(C)=O)n2)c1
	< 50 nM	< 50 nM			COc1ccc(NC(=O)C2=CCCN(C)C2)cc1Nc1ncc(Cl)c(Nc2ccccc2P(C)(C)=O)n1
50 to 100 nM	< 50 nM	< 50 nM	< 50 nM		C=CC(=O)Nc1cc(Nc2ncc(Cl)c(Nc3ccccc3P(C)(C)=O)n2)c(OC)cc1OC1COC1

IC50 [1]	IC50 [2]	IC50 [3]	IC50 [4]	IC50 (EGFR (human))	SMILES
	< 50 nM	< 50 nM	101 to 250 nM	< 50 nM	COc1ccc(NC(=O)/C=C/C(=O)N2CCN(C)CC2)cc1Nc1ncc(Cl)c(Nc2ccccc2P(C)(C)=O)n1
101 to 250 nM			50 to 100 nM		C=CC(=O)Nc1cc(Nc2ncc(Cl)c(Nc3ccccc3P(C)(C)=O)n2)c(OC)cc1OC1CN(C)C1
101 to 250 nM	50 to 100 nM	< 50 nM	50 to 100 nM		C=CC(=O)Nc1cc(Nc2ncc(Cl)c(Nc3ccccc3P(C)(C)=O)n2)c(OC)cc1OCC1CCOCC1
101 to 250 nM	< 50 nM	< 50 nM	< 50 nM		CC#CC(=O)Nc1cc(Nc2ncc(Cl)c(Nc3ccccc3P(C)(C)=O)n2)c(OC)cc1OCCN1CCCC1
	< 50 nM	< 50 nM		50 to 100 nM	C=CC(=O)Nc1cc(Cc2ncc(Cl)c(Nc3ccccc3P(C)(C)=O)n2)c(OC)cc1C#CCN1CCC(N(C)C)C1 (stereo not drawn)
	< 50 nM	< 50 nM	101 to 250 nM	< 50 nM	C=CC(=O)Nc1cc(Nc2ncc(Cl)c(Nc3ccccc3P(C)(C)=O)n2)c(OC)cc1N1CCC(N2CCC(O)C2)C1 (stereo not drawn)
	< 50 nM	< 50 nM		101 to 250 nM	C=CC(=O)Nc1cc(Nc2ncc(Cl)c(Nc3ccccc3P(C)(C)=O)n2)c(OC)cc1OCCN1CCN(C)CC1
50 to 100 nM and < 50 nM	< 50 nM		50 to 100 nM and < 50 nM	< 50 nM	C=CC(=O)Nc1cc(Nc2ncc(Cl)c(Nc3ccccc3P(C)(C)=O)n2)c(OC)cc1N1CCC(N2CCN(C)CC2)CC1
< 50 nM	< 50 nM	< 50 nM	< 50 nM		C=CC(=O)Nc1cc(Nc2ncc(Cl)c(Nc3ccccc3P(C)(C)=O)n2)c(OC)cc1C#CCN(CC)CC
	< 50 nM	< 50 nM		< 50 nM	COc1ccc(NC(=O)/C=C/C(=O)NCCN(C)C)cc1Nc1ncc(Cl)c(Nc2ccccc2P(C)(C)=O)n1
	< 50 nM	< 50 nM		< 50 nM	C=CC(=O)Nc1cc(Cc2ncc(Cl)c(Nc3ccccc3P(C)(C)=O)n2)c(OC)cc1C#CCN(C)C(C)(C)C
		101 to 250 nM			COc1ccc(NC(=O)/C=C\C(=O)N2CCN(C)CC2)cc1Nc1ncc(Cl)c(Nc2ccccc2P(C)(C)=O)n1
	< 50 nM	< 50 nM		< 50 nM	C=CC(=O)Nc1cc(Nc2ncc(Cl)c(Nc3ccccc3P(C)(C)=O)n2)c(OC)cc1N1CCC(N2CCN(CCO)CC2)C1 (stereo not drawn)
	< 50 nM	< 50 nM	50 to 100 nM		COc1ccc(NC(=O)/C=C/CN2CCCC2)cc1Nc1ncc(Cl)c(Nc2ccccc2P(C)(C)=O)n1
	< 50 nM	< 50 nM		101 to 250 nM	C=CC(=O)Nc1cc(Nc2ncc(Cl)c(Nc3ccccc3P(C)(C)=O)n2)c(OC)cc1C(=O)N1CCN(C)CC1
	< 50 nM	< 50 nM	101 to 250 nM	< 50 nM	C=CC(=O)Nc1ccc(OC)c(Nc2ncc(C#N)c(Nc3ccccc3P(C)(C)=O)n2)c1
50 to 100 nM	50 to 100 nM	< 50 nM	< 50 nM		CC#CC(=O)Nc1cc(Nc2ncc(Cl)c(Nc3ccccc3P(C)(C)=O)n2)c(OC)cc1OC1COC1
	< 50 nM	< 50 nM	101 to 250 nM	50 to 100 nM	C=CC(=O)Nc1cc(Nc2ncc(Cl)c(Nc3ccccc3P(C)(C)=O)n2)c(OC)cc1OCC1CCN(C)CC1
101 to 250 nM	< 50 nM	< 50 nM	50 to 100 nM		CNC(=O)/C=C/C(=O)Nc1ccc(OC)c(Nc2ncc(Cl)c(Nc3ccccc3P(C)(C)=O)n2)c1
	< 50 nM	< 50 nM	101 to 250 nM	< 50 nM	COc1cc(P(C)(C)=O)ccc1Nc1ncc(Cl)c(Oc2cccc(NC(=O)C#CCN(C)C)c2)n1
			101 to 250 nM		C=CC(=O)N1CCc2cc(Nc3ncc(Cl)c(Nc4ccccc4P(C)(C)=O)n3)c(OC)cc21
	101 to 250 nM				COc1ccc(NC(=O)/C=C\C(=O)O)cc1Nc1ncc(Cl)c(Nc2ccccc2P(C)(C)=O)n1
	< 50 nM	< 50 nM	101 to 250 nM	< 50 nM	C=C(CN1CCNC(=O)C1)C(=O)Nc1ccc(OC)c(Nc2ncc(Cl)c(Nc3ccccc3P(C)(C)=O)n2)c1
			101 to 250 nM		C=CC(=O)Nc1cc(Nc2ncc(Cl)c(Nc3ccccc3P(C)(C)=O)n2)c(OC)cc1OCC(CO)N(C)C (stereo not drawn)
	< 50 nM	50 to 100 nM			C=C(CN1CCS(=O)(=O)CC1)C(=O)Nc1ccc(OC)c(Nc2ncc(Cl)c(Nc3ccccc3P(C)(C)=O)n2)c1
	< 50 nM	< 50 nM	101 to 250 nM		C=CC(=O)Nc1ccc(OC)c(Nc2ncc(Cl)c(Nc3ccccc3P(C)(C)=O)n2)c1

SMILES	IC50 [1]	IC50 [2]	IC50 [3]	IC50 [4]	IC50 (EGFR (human))
COc1ccc(NC(=O)CF)cc1Nc1ncc(Cl)c(Nc2ccccc2P(C)(C)=O)n1		101 to 250 nM	50 to 100 nM		

From the Kinase Knowledgebase extract (Sharma et al. 2016)
